For orientation: IC50 means the point on the concentration scale where inhibition reaches its midpoint. As a reminder, the Kd is the free concentration of one partner at which half of the binding sites on the other are occupied at equilibrium, for simple one-to-one binding.

Where a name gives a salt, the structure may show the parent alone. Read-outs that look alike come from different tables or passages of the source.

In one assay the target is T1, p75^NTR (Rattus norvegicus, UniProt P07174).
T1 construct: expressed in transfected cells; host or cells: HEK293
T1 sequence (P07174 30-425): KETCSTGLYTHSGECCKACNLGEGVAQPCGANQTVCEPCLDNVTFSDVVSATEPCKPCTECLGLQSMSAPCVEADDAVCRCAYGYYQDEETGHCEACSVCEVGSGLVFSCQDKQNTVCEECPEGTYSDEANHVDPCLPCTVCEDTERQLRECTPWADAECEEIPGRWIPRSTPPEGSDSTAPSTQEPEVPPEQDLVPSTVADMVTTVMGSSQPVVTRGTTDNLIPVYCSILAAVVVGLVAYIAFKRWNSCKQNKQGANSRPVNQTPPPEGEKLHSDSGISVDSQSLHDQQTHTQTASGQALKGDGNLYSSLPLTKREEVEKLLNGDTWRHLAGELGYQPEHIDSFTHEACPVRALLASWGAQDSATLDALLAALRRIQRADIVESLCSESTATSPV
Nature of the assay: Heterologous [3H]-DHEA displacement, HEK293^p75NTR cell membranes. The note with it: for displacement of [3H]-DHEA binding (in words): competitor up to 1000 nM. Type of assay: binding. (In general: Loss of bound radioactivity is the signal in a displacement assay; it reports binding, not function.)

Assay [1] addresses T2, TrkA (Rattus norvegicus, UniProt P35739). Nature of the assay: Heterologous [3H]-DHEA displacement, HEK293^TrkA cell membranes. The class given is binding. Set-up: expressed in transfected cells; host or cells: HEK293.
The target in assay [2] is T2, TrkA. Nature of the assay: TrkA phosphorylation in HEK293^TrkA transfectants (anti-tyrosine IP, Western blot). Type of assay: cell-based. Set-up: expressed in transfected cells; host or cells: HEK293. The settings on record: 10 min (and 20 min), steroids 100 nM, NGF 100 ng/ml. As to the method:
HEK293 cells were transfected with the appropriate plasmids (TrkA, p75^NTR, RIP2, TRAF-6, and RhoGDI) by using Lipofectamine 2000 (Invitrogen). Cells were harvested 48 h after transfection and suspended in lysis buffer (50 mM Tris-HCl, 0.15 M NaCl, 1% Triton-X100, pH 7.4) supplemented with protease inhibitors. Lysates were precleared for 1 h with Protein A-Sepharose beads (Amersham) and immunoprecipitated with the appropriate antibody (pTyr, Flag, or c-myc) overnight at 4°C. Protein A Sepharose beads were incubated with the lysates for 4 h at 4°C with gentle shaking. […] Beads were collected by centrifugation, washed four times with lysis buffer, and resuspended in SDS loading buffer. Proteins were separated by SDS/PAGE, followed by immunoblotting with specific antibodies.
PC12 or HEK293 cells lysates were electrophoresed through a 12% SDS-polyacrylamide gel, and then proteins were transferred to nitrocellulose membranes, which were processed according to standard Western blotting procedures, as previously described. To detect protein levels, membranes were incubated with the appropriate antibodies: Bcl-2 (dilution 1∶500), phospho TrkA (dilution 1∶500), total TrkA (dilution1∶500), p75^NTR (dilution 1∶500), phospho Shc (dilution 1∶1000), total Shc (dilution 1∶1000), phospho Akt (dilution 1∶500), total Akt (dilution 1∶500), phospho ERK1/2 (dilution 1∶500), and total ERK1/2 (dilution 1∶500). Proteins were visualized using the ECL Western blotting kit (ECL Amersham Biosciences, UK), and blots were exposed to Kodak X-Omat AR films. A PC-based Image Analysis program was used to quantify the intensity of each band (Image Analysis, Inc., Ontario, Canada).
To normalize for protein content the blots were stripped and stained with GAPDH antibody (dilution 1∶1000); the concentration of each target protein was normalized versus GAPDH. Where phosphorylation of TrkA or kinases was measured, membranes were first probed for the phosphorylated form of the protein, then stripped, and probed for the total protein.
In general terms: A western blot detects proteins with antibodies after separation by electrophoresis.

The next assay has as its target TrkA receptor. The note with it: extracellular and cytoplasmic juxtamembrane domains of TrkA; read-out: Kd of binding to TrkA receptor; cited from earlier work.
Another assay deals with p75NTR (Homo sapiens) (UniProt P08138). The settings on record: cited from earlier work.
Sequence of p75NTR (Homo sapiens) (P08138 29-250): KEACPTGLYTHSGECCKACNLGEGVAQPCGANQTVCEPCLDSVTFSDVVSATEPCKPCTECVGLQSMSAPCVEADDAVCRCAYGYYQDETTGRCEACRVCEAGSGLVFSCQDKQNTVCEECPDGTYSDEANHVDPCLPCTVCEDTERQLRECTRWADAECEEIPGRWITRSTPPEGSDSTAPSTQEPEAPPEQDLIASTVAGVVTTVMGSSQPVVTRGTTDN
Assay [3] concerns the target T3, rat p75^NTR receptor expressed in HEK293 cells (HEK293^p75NTR) (rat, UniProt P07174 30-425).
T3 construct: also called p75 neurotrophin receptor; source: HEK293, transfected (Lipofectamine 2000); crude membranes, whole cells and lysate
T3 sequence (looked up): T1 sequence (P07174 30-425)
As to the kind of experiment: radioligand binding; heterologous displacement of 1 nM [3H]-DHEA (a steroid) by unlabeled NGF (10^-12-10^-6 M) on membranes (2 mg/ml) of HEK293^TrkA and HEK293^p75NTR cells, PBS pH 7.4 with protease inhibitors, collected on GF/B filters. The note with it: one partner purified.

In assay [4] the target is T4, rat TrkA receptor expressed in HEK293 cells (HEK293^TrkA) (rat, UniProt P35739 33-799).
T4 construct: TrkA (NGF receptor tyrosine kinase), rat, expressed from the pHA vector backbone; source: HEK293, transfected (Lipofectamine 2000); crude membranes and whole cells
T4 sequence (P35739 33-799): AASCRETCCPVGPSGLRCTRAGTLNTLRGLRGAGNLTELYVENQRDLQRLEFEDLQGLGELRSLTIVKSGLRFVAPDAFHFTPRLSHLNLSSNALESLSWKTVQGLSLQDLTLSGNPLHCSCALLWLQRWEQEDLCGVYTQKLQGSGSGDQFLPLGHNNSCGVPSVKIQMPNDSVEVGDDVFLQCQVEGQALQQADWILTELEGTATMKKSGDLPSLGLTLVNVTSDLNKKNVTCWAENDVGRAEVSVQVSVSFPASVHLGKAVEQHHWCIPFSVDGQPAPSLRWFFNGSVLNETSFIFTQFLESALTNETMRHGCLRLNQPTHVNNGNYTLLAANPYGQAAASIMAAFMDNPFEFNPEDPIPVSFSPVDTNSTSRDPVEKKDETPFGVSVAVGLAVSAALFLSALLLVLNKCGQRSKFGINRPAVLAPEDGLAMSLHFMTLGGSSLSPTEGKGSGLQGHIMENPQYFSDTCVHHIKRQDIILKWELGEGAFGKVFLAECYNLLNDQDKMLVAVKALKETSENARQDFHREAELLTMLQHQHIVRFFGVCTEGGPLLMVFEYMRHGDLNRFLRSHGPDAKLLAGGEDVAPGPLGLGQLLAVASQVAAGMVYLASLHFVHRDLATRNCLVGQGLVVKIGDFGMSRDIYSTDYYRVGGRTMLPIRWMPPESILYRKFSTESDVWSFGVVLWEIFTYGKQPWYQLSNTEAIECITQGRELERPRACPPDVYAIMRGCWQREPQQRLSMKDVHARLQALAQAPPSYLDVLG
Described as above. The note with it: one partner purified.

Assay [5] deals with T3, rat p75^NTR receptor expressed in …. Nature of the assay: radioligand binding; homologous [125I]-NGF displacement with unlabeled NGF on membranes isolated from HEK293^TrkA and HEK293^p75NTR transfectants. The note with it: one partner purified.
Assay [6] addresses T4, rat TrkA receptor expressed in HEK293 …. The assay is described as above. The note with it: one partner purified.

T2 sequence (P35739 33-799): as above

Consider `C[C@]12CC[C@H](OS(=O)(=O)O)CC1=CC[C@@H]1[C@@H]2CC[C@]2(C)C(=O)CC[C@@H]12` [DHEAS, dehydroepiandrosterone sulfate], for which the IC50 came out at 8.1 ± 1.2 nM at p75^NTR (HEK293^p75NTR membranes, 1 nM [3H]-DHEA, read-out: IC50 of [3H]-DHEA displacement) and 6.1 ± 1.1 nM on TrkA [1] (HEK293^TrkA membranes, 1 nM [3H]-DHEA, read-out: IC50 of [3H]-DHEA displacement). Further, the “phosphorylation of TrkA” value at TrkA [2] is on record as “rapidly induced”.

For the molecule `C[C@]12CC[C@@H]3c4ccc(O)cc4CC[C@H]3[C@@H]1CC[C@@H]2O` [Estradiol], the “displacement of [3H]-DHEA binding (in words)” value at p75^NTR (HEK293^p75NTR membranes) is “failed to displace”; at TrkA [1] (HEK293^TrkA membranes, competitor 0.1 to 1000 nM) it was “failed to displace”.

As for `CN(C)CCC=C1c2ccccc2CCc2ccccc21` [amitriptyline], the Kd on TrkA receptor was 3000 nM.

In the case of `C[C@@H]1C[C@H]2[C@@H]3CCC4=CC(=O)C=C[C@]4(C)[C@@]3(F)[C@@H](O)C[C@]2(C)[C@@]1(O)C(=O)CO` [dexamethasone], the “displacement of [3H]-DHEA binding (in words)” value at p75^NTR (HEK293^p75NTR membranes) is on record as “ineffective”.

Turning to `CC(C)=CCC[C@]1(C)C=Cc2c(O)c3c(c(CC=C(C)C)c2O1)O[C@]12C(=C[C@@H]4CC1C(C)(C)O[C@@]2(C/C=C(/C)C(N)=O)C4=O)C3=O` [gambogic amide], on TrkA receptor, the Kd was 75 nM.

Consider `C[C@]12CC[C@H]3[C@@H](CCC4=CC(=O)CC[C@@]43C)[C@@H]1CC[C@@H]2O` [testosterone], for which the IC50 is 7.4 ± 3.2 nM at p75^NTR and 5.3 ± 2.1 nM at TrkA [1]. Further, on TrkA [2], the “phosphorylation of TrkA” value is given as “unable to increase”.

Turning to NGF (from UniProt P01138), in the assay with p75NTR (Homo sapiens), the Kd was 1 nM.

B1: nerve growth factor (NGF), unlabeled (ligand, UniProt P01139 122-241, looked up)
chain: SSTHPVFHMGEFSVCDSVSVWVGDKTTATDIKGKEVTVLAEVNINNSVFRQYFFETKCRASNPVESGCRGIDSKHWNSYCTTTHTFVKALTTDEKQAAWRFIRIDTACVCVLSRKATRRG
notes: nerve growth factor (NGF); The species of the NGF is told nowhere; also called unlabeled NGF
As for B1, the IC50 in assay [3] amounted to 1.19 ± 0.45 nM; in assay [4], 0.8 ± 0.2 nM; in [5], 1.7 ± 0.38 nM; in [6], 0.3 ± 0.09 nM.
